# Results: paper PMC11945486, “TAS1R2/TAS1R3 Single-Nucleotide Polymorphisms Affect Sweet Taste Receptor Activation by Sweeteners: The SWEET Project” (Nutrients, 2025)
# No end group written: not given here.
# B1: thaumatin (protein)
# chain: ATFEIVNRCSYTVWAAASKGDAALDAGGRQLNSGESWTINVEPGTKGGKIWARTDCYFDDSGSGICKTGDCGGLLRCKRFGRPPTTLAEFSLNQYGKDYIDISNIKGFNVPMDFSPTTRGCRGVRCAADIVGQCPAKLKAPGGGCNDACTVFQTSEYCCTTGKCGPTEYSRFFKRLCPDAFSYVLDKPTTVTCPGSSNYRVTFCPTA
# modifications: Eight disulfides
# notes: sweet-tasting plant protein, E957
# Biological target: T1, human TAS1R2-WT/TAS1R3-S551N (Homo sapiens, UniProt Q7RTX0+Q8TE23, S551N)
# T1 construct: expressed in transfected cells; host or cells: HEK293T stably expressing Gα16gust44
# T1 sequence (Q8TE23 20-839): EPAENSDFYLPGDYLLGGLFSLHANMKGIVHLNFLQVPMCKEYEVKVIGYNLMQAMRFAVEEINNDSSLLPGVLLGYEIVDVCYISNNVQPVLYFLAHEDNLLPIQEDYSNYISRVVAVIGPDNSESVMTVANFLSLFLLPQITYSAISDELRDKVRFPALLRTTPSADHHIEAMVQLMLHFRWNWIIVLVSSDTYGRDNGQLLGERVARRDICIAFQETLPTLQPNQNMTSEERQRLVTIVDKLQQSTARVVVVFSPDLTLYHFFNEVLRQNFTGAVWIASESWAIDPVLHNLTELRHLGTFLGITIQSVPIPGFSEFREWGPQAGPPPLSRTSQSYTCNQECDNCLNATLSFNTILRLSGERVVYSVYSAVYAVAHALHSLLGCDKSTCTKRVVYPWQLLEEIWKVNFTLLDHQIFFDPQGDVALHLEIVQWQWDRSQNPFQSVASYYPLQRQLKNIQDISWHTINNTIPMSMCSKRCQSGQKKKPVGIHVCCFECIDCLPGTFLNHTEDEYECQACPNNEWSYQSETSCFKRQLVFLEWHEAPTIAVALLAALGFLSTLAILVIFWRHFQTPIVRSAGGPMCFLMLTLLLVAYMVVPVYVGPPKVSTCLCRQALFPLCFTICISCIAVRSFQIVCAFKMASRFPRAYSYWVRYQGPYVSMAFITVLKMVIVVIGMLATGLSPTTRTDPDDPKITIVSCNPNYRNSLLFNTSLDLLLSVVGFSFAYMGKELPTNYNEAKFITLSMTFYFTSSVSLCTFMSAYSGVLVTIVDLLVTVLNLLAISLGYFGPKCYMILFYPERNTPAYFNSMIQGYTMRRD
# T1 sequence (Q7RTX0 21-852 S551N): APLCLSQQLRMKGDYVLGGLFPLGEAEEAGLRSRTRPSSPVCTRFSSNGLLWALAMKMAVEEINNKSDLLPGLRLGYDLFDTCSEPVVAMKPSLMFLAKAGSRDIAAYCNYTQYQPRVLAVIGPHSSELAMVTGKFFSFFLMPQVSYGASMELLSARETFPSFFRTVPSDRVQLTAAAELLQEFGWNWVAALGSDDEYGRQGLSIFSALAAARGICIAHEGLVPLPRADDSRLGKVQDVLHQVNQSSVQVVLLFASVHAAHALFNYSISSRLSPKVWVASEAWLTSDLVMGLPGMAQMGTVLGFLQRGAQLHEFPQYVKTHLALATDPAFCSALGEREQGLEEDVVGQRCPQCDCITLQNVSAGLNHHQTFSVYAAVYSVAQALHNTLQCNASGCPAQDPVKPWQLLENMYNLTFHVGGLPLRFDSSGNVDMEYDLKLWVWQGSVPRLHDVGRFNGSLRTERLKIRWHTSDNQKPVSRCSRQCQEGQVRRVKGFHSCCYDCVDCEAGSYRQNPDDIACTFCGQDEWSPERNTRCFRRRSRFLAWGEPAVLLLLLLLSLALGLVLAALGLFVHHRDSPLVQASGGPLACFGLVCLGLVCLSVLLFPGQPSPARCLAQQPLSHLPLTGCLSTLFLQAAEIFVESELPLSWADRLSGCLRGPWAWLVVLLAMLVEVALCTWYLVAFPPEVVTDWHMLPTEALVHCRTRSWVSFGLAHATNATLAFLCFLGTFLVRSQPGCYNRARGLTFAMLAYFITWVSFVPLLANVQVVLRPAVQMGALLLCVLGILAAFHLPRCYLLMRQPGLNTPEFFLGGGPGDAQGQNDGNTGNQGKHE
# Assay: Calcium mobilisation assay, TAS1R2-WT with TAS1R3 variant S551N
# Format: cell-based
# Conditions: for Max ΔF/F0: maximal signal amplitude; for Max ΔF/F0 / EC50: "-": no activation
# Text: The coding sequences for TAS1R2 and TAS1R3 were commercially synthesised, and the human codon was optimised for expression in human cells. The coding sequences of human TAS1R2 and TAS1R3 were subcloned and inserted into the mammalian expression vectors pcDNA6/myc-HisA and pcDNA4/myc-HisA (Invitrogen; Thermo Fisher Scientific; Illkirch, France) between the EcoRI and NotI restriction sites, generating the plasmids pcDNA6-TAS1R2 and pcDNA4-TAS1R3, respectively. To increase protein expression in mammalian cells, an upstream start codon was used, which was a sequence called MAX, corresponding to the QBI SP163 element also described in pcDNA4-HisMax (Invitrogen; Thermo Fisher Scientific; Illkirch, France). To measure the expression level of the receptor by immunohistochemistry, we used the FLAG sequence ([…]) in the C-terminal position, which encodes the FLAG tag epitope. SNP variants of TAS1R2 and TAS1R3 were constructed based on […], respectively, using site-directed mutagenesis (Genewiz; Leipzig, Germany).
# The HEK293T cells were kindly provided by Jay P. Slack (Givaudan Flavors Corporation; Cincinnati, OH, USA). HEK293T cells stably transfected with Gα16gust44 [43, 67] were seeded in poly-D-lysine-coated clear-bottom black 96-well plates (0.35 × 10^5 cells/well) in high-glucose DMEM supplemented with 2 mM GlutaMAX, 10% dialysed foetal bovine serum with penicillin/streptomycin and G418 (400 μg/mL) at 37 °C and 6.3% CO2 in a humidified atmosphere as previously reported. […] As a negative control, HEK293T cells were mock-transfected with the empty expression vector. After a further 24 h of incubation, the HEK293T cells were washed with C1 buffer (130 mM NaCl, 5 mM KCl, 10 mM HEPES pH 7.4 and 2 mM CaCl2). The 96-well plates containing the cells were then stimulated with sweet-tasting compounds. […] Different concentration ranges were tested depending on the sweet compound injected. The Ca^2+ changes were expressed as fractional changes in fluorescent light intensity: ΔF/F = (F − F0)/F0, where F was the fluorescent light intensity at each point, and F0 was the value of emitted fluorescent light prior to stimulus application. To calculate dose–response relationships, the changes in fluorescence upon stimulus application were averaged, mock-subtracted and baseline-corrected. The dose–response data obtained were adjusted using a 4-parameter logistic equation. The half-maximal effective concentrations (EC50 values) and maximal signal amplitudes were calculated using SigmaPlot software (version 15.0) (Systat Software; San Jose, CA, USA).
# For in vitro calcium mobilisation assay performed on hTAS1R2-SNPs, hTAS1R3-SNPs and mTAS1R3-I60T, 6 to 7 concentrations were tested for each sweet compound, plus buffer alone. All concentration–receptor combinations were measured in duplicate, and each experiment was repeated at least 4 times (8 wells/concentration). Results were expressed for each concentration as ΔF/F mean ± SEM and represented as dose–response curves.
Molecule,R1 = Variant EC50/WT EC50,Max ΔF/F0,EC50
"C[C@H](CC[C@@H](O[C@@H]1O[C@H](CO[C@@H]2O[C@H](CO)[C@@H](O)[C@H](O)[C@H]2O)[C@@H](O)[C@H](O)[C@H]1O[C@@H]1O[C@H](CO)[C@@H](O)[C@H](O)[C@H]1O)C(C)(C)O)[C@H]1CC[C@@]2(C)[C@@H]3CC=C4[C@@H](CC[C@H](O[C@@H]5O[C@H](CO[C@@H]6O[C@H](CO)[C@@H](O)[C@H](O)[C@H]6O)[C@@H](O)[C@H](O)[C@H]5O)C4(C)C)[C@]3(C)[C@H](O)C[C@]12C [Mogroside V, mogroside V]",3.6,0.03,
"C=C(C)[C@@H]1CC=C(/C=N/O)CC1 [Perillartine, perillartine]",3.6,0.52 ± 0.04,49.2 ± 13.6 µM
"brazzein (QDKCKKVYENYPVSKCQLANQCNYDCKLDKHARSGECFYDEKRNLQCICDYCEY; ends and bridges not checked; cysteine pairing not given here; UniProt P56552 1-54, looked up) [sweet-tasting protein obtained by recombinant production using the yeast Pichia pastoris]",21.1,0.21 ± 0.21,
thaumatin,1.7,0.25 ± 0.01,
B1,,,17.4 ± 2.2 µM
